# Results reported in US8865913B2, “Crystalline forms and processes for their preparation” (BIAL-Portela & C.A., S.A, priority 2010, dated 2014).
# Legend:
# Format in all cases: physicochemical
# [1] = Moisture sorption analysis (VTI SGA-100, 5 to 95% RH); conditions: for hysteresis upon desorption: decreasing relative humidity; for hysteresis upon desorption / weight loss between ~95% and ~5% RH: desorption; for weight loss between ~95% and ~5% RH: ~95% to ~5% RH; for weight gain between ~5% and ~75% RH / total water uptake between ~5% and ~95% RH / weight gain between ~75% and ~95% RH: sorption; for weight gain between ~5% and ~75% RH: ~5% to ~75% RH; for total water uptake between ~5% and ~95% RH: ~5% to ~95% RH; for weight gain between ~75% and ~95% RH: ~75% to ~95% RH
# Experimental: 9. Moisture Sorption Analysis
# Moisture sorption/desorption data were collected on a VTI SGA-100 Vapor Sorption Analyzer. NaCl and PVP were used as calibration standards. Samples were not dried prior to analysis. Sorption and desorption data were collected over a range from 5 to 95% RH at 10% RH increments under a nitrogen purge. The equilibrium criterion used for analysis was less than 0.0100% weight change in 5 minutes with a maximum equilibration time of 3 hours. Data were not corrected for the initial moisture content of the samples.
# [2] = Aqueous vapor stress experiments
# Experimental: d. Aqueous Vapor Stress Experiments
# Samples of starting material were exposed to ˜85% and ˜97% relative humidity at ambient temperature and ˜75% relative humidity at ˜40° C. for a specified duration.
# [3] = Mechanical stress experiments (ball mill, dry/wet grinding)
# From the text: h. Mechanical Stress Experiments
# Samples of starting material were placed in a Retsch ball mill and milled for two five-minute cycles without solvent (dry grinding) or with a small amount of solvent added (wet grinding) scraping the solids between the cycles. Ten-minute cycles were used for milling of a selected sample without addition of solvent.
# [4] = Organic vapor stress experiments
# Experimental: e. Organic Vapor Stress Experiments
# Samples of starting material were exposed to vapors of a specified organic solvent for a given amount of time by placing open vials with solids tested into 20 mL vials containing solvent. Organic vapor stress experiments were conducted at ambient temperature.
# [5] = Heat stress experiments of amorphous material; conditions: sample no. 3
# From the text: i. Heat Stress Experiments
# Samples of amorphous material were placed in heating ovens at temperature set below or above the glass transition, or were agitated on a shaker block at elevated temperature for a given duration.
# [6] = Slow cooling of the melt experiment; conditions: 77° C., SC to RT; sample no. 3
# From the text: j. Slow Cooling of the Melt Experiment
# Samples of amorphous material were heated on a hot plate at temperature above the glass transition. The sample was then allowed to slow cool to ambient by turning the heating device off.
# [7] = Slurry experiments (incl. water activity slurries)
# Experimental: Solutions were prepared by addition of a solvent or solvent mixture to the starting material with excess solids present. The mixtures were then agitated in sealed vials at either ambient or a set temperature. For agitation at subambient temperature, chilled solvent was added and the sample was immediately transferred to a freezer. After a given amount of time, the solids were isolated.
smiles,measurement,setting,value
"Fc1cc(F)c2c(c1)C[C@@H](n1c(CCNCc3ccccc3)c[nH]c1=S)CO2 [Form A, 1-[(3R)-6,8-difluoro-3,4-dihydro-2H-1-benzopyran-3-yl]-1,3-dihydro-5-[2-[(phenylmethyl)amino]ethyl]-2H-imidazole-2-thione]",hygroscopicity,[1]; 5% to 95% RH,low hygroscopicity (a material that exhibits <0.5 wt(weight) % water uptake over a specified relative humidity range)
same,hysteresis upon desorption,[1],hysteresis between around 85% to around 45% RH
same,hysteresis upon desorption,[1]; listed as Lot 5,Small hysteresis
same,hysteresis upon desorption,[1]; listed as lot 5,small hysteresis
same,weight loss between ~95% and ~5% RH,[1],around 0.20 wt %
same,weight loss between ~95% and ~5% RH,[1]; listed as Lot 5,~0.20 wt %
same,weight loss between ~95% and ~5% RH,[1]; listed as lot 5,~0.20 wt %
same,weight change upon equilibration at ~5% RH,[1]; moisture sorption,negligible loss
same,weight change upon equilibration at ~5% RH,"[1]; moisture sorption, listed as Lot 5",Negligible loss upon equilibration at ~5% RH
same,weight change upon equilibration at ~5% RH,"[1]; moisture sorption, listed as lot 5",negligible weight loss
same,weight gain between ~5% and ~75% RH,[1],around 0.02 wt %
same,weight gain between ~5% and ~75% RH,[1]; listed as Lot 5,~0.02 wt % gain between ~5% and ~75% RH
same,weight gain between ~5% and ~75% RH,[1]; listed as lot 5,~0.02 wt %
same,total water uptake between ~5% and ~95% RH,[1]; listed as lot 5,~0.21 wt %
same,weight gain between ~75% and ~95% RH,[1],around 0.19 wt %
same,weight gain between ~75% and ~95% RH,[1]; listed as Lot 5,~0.19 wt % gain between ~75% and ~95% RH
same,weight gain between ~75% and ~95% RH,[1]; listed as lot 5,~0.19 wt %
same,XRPD result after aqueous vapor stress,"[2]; 75% RH, 40° C., 2 days",Form A
same,XRPD result after aqueous vapor stress,"[2]; 85% RH, 2 days",Form A
same,stability of the crystal form upon aqueous vapor stress,[2]; summary statement,remains stable as a crystal form
same,XRPD result after mechanical stress,"[3]; Acetone, wet grinding, 2 × 5 min. cycles",Form A
same,XRPD result after mechanical stress,"[3]; DMF, wet grinding, 2 × 5 min. cycles",Form A
same,XRPD result after mechanical stress,"[3]; Dry grinding, 2 × 5 min. cycles",Form A (disordered)
same,XRPD result after mechanical stress,"[3]; Dry grinding, 2 × 10 min. cycles",Form A (disordered)
same,XRPD result after mechanical stress,"[3]; MEK, wet grinding, 2 × 5 min. cycles",Form A
same,XRPD result after mechanical stress,"[3]; TFE, wet grinding, 2 × 5 min. cycles",Form A
same,XRPD result after mechanical stress,"[3]; THF, wet grinding, 2 × 5 min. cycles",Form A
same,stability of the crystal form upon mechanical stress,[3]; summary statement,remains stable as a crystal form
same,XRPD result after organic vapor stress,"[4]; CHCl3, vapor stress, 11 days",Form A
same,XRPD result after organic vapor stress,"[4]; EtOAc, vapor stress, 11 days",Form A
"Fc1cc(F)c2c(c1)C[C@@H](n1c(CCNCc3ccccc3)c[nH]c1=S)CO2 [Amorphous, 1-[(3R)-6,8-difluoro-3,4-dihydro-2H-1-benzopyran-3-yl]-1,3-dihydro-5-[2-[(phenylmethyl)amino]ethyl]-2H-Imidazole-2-thione]",moisture retained upon desorption,[1]; desorption between ~85% and ~15% RH,3.6-5.8 wt %
same,hysteresis upon desorption,[1]; listed as Sample No. 2,large hysteresis
same,hysteresis upon desorption,[1]; listed as amorphous compound 2,hysteresis over a range of more than 50% RH
same,weight loss between ~95% and ~5% RH,[1]; listed as Sample No. 2,~8.6 wt %
same,weight loss between ~95% and ~5% RH,[1]; listed as amorphous compound 2,around 8.6 wt %
same,hygroscopicity,"[1]; moisture sorption, amorphous material",significant hygroscopicity (a material that exhibits ≧2.0 wt % water uptake over a specified RH range)
same,weight gain upon equilibration at ~5% RH,"[1]; moisture sorption, listed as Sample No. 2",~0.1 wt %
same,weight gain upon equilibration at ~5% RH,"[1]; moisture sorption, listed as amorphous compound 2",around 0.08 wt %
same,weight gain between ~5% and ~75% RH,[1]; listed as Sample No. 2,approximately 1.2 wt %
same,weight gain between ~5% and ~75% RH,[1]; listed as amorphous compound 2,around 1.2 wt %
same,total water uptake between ~5% and ~95% RH,[1]; listed as Sample No. 2,~9.9 wt %
same,weight gain between ~75% and ~95% RH,[1]; listed as Sample No. 2,~8.7 wt %
same,weight gain between ~75% and ~95% RH,[1]; listed as amorphous compound 2,around 8.7 wt %
same,XRPD result after heat stress,"[5]; 36° C., 1 day, heating with agitation","Disordered, Form A"
same,XRPD result after heat stress,"[5]; 40° C., 3 hrs",Amorphous/Form A mixture
same,XRPD result after heat stress,"[5]; 50° C., 3 hrs",Amorphous/Form A mixture
same,XRPD result after heat stress,"[5]; 60° C., 3 hrs","Disordered, Form A"
same,XRPD result after heat stress,"[5]; 80° C., 3 hrs",Form A^c
same,XRPD result after heat stress,"[5]; 80° C., 1 day",Form A^c
same,XRPD result after cooling from the melt,[6],Amorphous/Form A mixture
same,XRPD result after aqueous vapor stress,"[2]; 75% RH, 40° C., 1 day, starting material sample no. 3","Disordered, Form A"
same,XRPD result after aqueous vapor stress,"[2]; 85% RH, 3 days, starting material sample no. 14",No peaks
same,XRPD result after aqueous vapor stress,"[2]; 97% RH, RT, 6 days, starting material sample no. 3",Amorphous/Form A mixture
same,XRPD result after organic vapor stress,"[4]; Acetone, 1 day, starting material sample no. 2",Form A
same,XRPD result after organic vapor stress,"[4]; CHCl3, 1 day, starting material sample no. 2",Form A
same,XRPD result after organic vapor stress,"[4]; EtOAc, 1 day, starting material sample no. 2",Form B
same,XRPD result after organic vapor stress,"[4]; IPE, 2 days, starting material sample no. 3",Form A
"Fc1cc(F)c2c(c1)C[C@@H](n1c(CCNCc3ccccc3)c[nH]c1=S)CO2 [compound 2, 1-[(3R)-6,8-difluoro-3,4-dihydro-2H-1-benzopyran-3-yl]-1,3-dihydro-5-[2-[(phenylmethyl)amino]ethyl]-2H-imidazole-2-thione]",XRPD result of water activity slurry,"[7]; amorphous starting material sample no. 2, Water, 50° C., 3 days, aw 1, sample no. 119",Material C (close to Form A + peaks)
same,XRPD result of water activity slurry,"[7]; amorphous starting material sample no. 3, Acetone/water (25/75), aw 0.95, ambient, 6 days, sample no. 108",Form A^c
same,XRPD result of water activity slurry,"[7]; amorphous starting material sample no. 3, Acetone/water (33/67), aw 0.93, ambient, 6 days, washed w/ acetone/water (33/67), sample no. 107",Form A^c
same,XRPD result of water activity slurry,"[7]; amorphous starting material sample no. 3, Acetone/water (60/40), aw 0.89, ambient, 6 days, sample no. 106",Form A
same,XRPD result of water activity slurry,"[7]; amorphous starting material sample no. 3, Acetone/water (82/18), aw 0.80, ambient, 6 days, sample no. 105",Form A
same,XRPD result of water activity slurry,"[7]; amorphous starting material sample no. 3, Acetone/water (88/12), aw 0.73, ambient, 6 days, sample no. 104",Form A
same,XRPD result of water activity slurry,"[7]; amorphous starting material sample no. 3, DMF/water (9/91), aw 0.98, RT, 5 days, washed w/ water, sample no. 115",Form A^c
same,XRPD result of water activity slurry,"[7]; amorphous starting material sample no. 3, DMSO/water (10/90), aw 0.97, RT, 5 days, washed w/ water, sample no. 116",Form A^c
same,XRPD result of water activity slurry,"[7]; amorphous starting material sample no. 3, EtOH/water (67/33), aw 0.82, 40° C., 2 days, sample no. 111",Form A^c
same,XRPD result of water activity slurry,"[7]; amorphous starting material sample no. 3, Ethanol/water (20/80), aw 0.95, ambient, 6 days, sample no. 113",Form A^c
same,XRPD result of water activity slurry,"[7]; amorphous starting material sample no. 3, Ethanol/water (47/53), aw 0.90, ambient, 6 days, sample no. 112",Form A^c
same,XRPD result of water activity slurry,"[7]; amorphous starting material sample no. 3, Ethanol/water (70/30), aw 0.80, ambient, 6 days, sample no. 110",Form A^c
same,XRPD result of water activity slurry,"[7]; amorphous starting material sample no. 3, Ethanol/water (80/20), aw 0.70, ambient, 6 days, sample no. 109",Form A^c
same,XRPD result of water activity slurry,"[7]; amorphous starting material sample no. 3, IPA/water (50/50), aw 0.96, 40° C., 2 days, sample no. 114",Form A^c
same,XRPD result of water activity slurry,"[7]; amorphous starting material sample no. 3, MeOH/water (50/50), aw 0.75, ambient, 6 days, washed w/ MeOH/water (50/50), sample no. 117",Form A^c
same,XRPD result of water activity slurry,"[7]; amorphous starting material sample no. 3, THF/water (50/50), aw 1.03, ambient, 6 days, washed w/ THF/water (50/50), VO, RT, 1 h, sample no. 118",Form A^c
same,XRPD result of water activity slurry,"[7]; amorphous starting material sample no. 3, Water, RT, 4 days, surfactant as wetting agent, aw 1, sample no. 121",Form A
